The subject of series [1] is Botryotinia fuckeliana (Botrytis cinerea). Put plainly: Botryotinia fuckeliana (Botrytis cinerea)/Liquid Culture (Gray Mould). It counts as cell-based. The settings on record: 200 ppm, liquid culture, compared to untreated control, 3-4 days after application, read-out: control of Botryotinia fuckeliana.
Series [2] deals with Fusarium culmorum. Put plainly: whole plant or invertebrate. It counts as in vivo. Particulars: in Triticum aestivum, read-out: control of Fusarium culmorum.
For series [3], the system named is Fusarium culmorum. As to the kind of experiment: microbe, parasite or virus in culture. It counts as cell-based. Particulars: read-out: control of Fusarium culmorum.
The subject of series [4] is Magnaporthe grisea (Pyricularia oryzae). Put plainly: whole plant or invertebrate. It counts as in vivo. Particulars: foliar, read-out: control of Magnaporthe grisea.
Series [5] has as its system Glomerella lagenarium (Colletotrichum lagenarium). As to the kind of experiment: Glomerella lagenarium (Colletotrichum lagenarium)/Liquid Culture (Anthracnose). Particulars: Colletotrichum orbiculare; 200 ppm; liquid culture, compared to untreated control, 3-4 days after application; read-out: control of Glomerella lagenarium. It is filed as cell-based.
Series [6] has as its system Magnaporthe grisea (Pyricularia oryzae). As to the kind of experiment: microbe, parasite or virus in culture. It is filed as cell-based. Particulars: read-out: control of Magnaporthe grisea.
Series [7] concerns Monographella nivalis (Microdochium nivale). As to the kind of experiment: Monographella nivalis (Microdochium nivale)/Liquid Culture (Foot Rot Cereals). It is filed as cell-based. Particulars: 200 ppm, liquid culture, compared to untreated control, 4-5 days after application, read-out: control of Monographella nivalis.
The subject of a further series is Sclerotinia sclerotiorum. As to the kind of experiment: Sclerotinia sclerotiorum/Liquid Culture (Cottony Rot). Particulars: read-out: control of Sclerotinia sclerotiorum.

This note sets out measurements from patent US10952436B2, “Microbiocidal quinoline (thio)carboxamide derivatives” (SYNGENTA PARTICIPATIONS AG, priority 2017, dated 2021).

Experimental for Sclerotinia sclerotiorum: Mycelia fragments of a newly grown liquid culture of the fungus are directly mixed into nutrient broth (Vogels broth). After placing a (DMSO) solution of test compound into a microtiter plate (96-well format) the nutrient broth containing the fungal material is added. The test plates are incubated at 24° C. and the inhibition of growth is determined photometrically 3-4 days after application.

Take `C#CCC(C)(Cc1ccccc1)C(=O)Nc1cc2cccc(F)c2nc1C` (stereo not drawn) [Compound E-2, 2-benzyl-N-(8-fluoro-2-methyl-3-quinolyl)-2-methyl-pent-4-ynamide]: the inhibition of growth at 200 ppm (in [1]; in the series with Fusarium culmorum [3]; in series [5]) was at least 80% throughout. In addition, the pest or weed control at 200 ppm (in the series with Fusarium culmorum [2]; in series [4]) was at least 80% in each case.

For the molecule `Cc1nc2c(F)cccc2cc1NC(=O)C(C)(Cc1cccc(F)c1)CC(C)C` (stereo not drawn) [Compound E-10, N-(8-fluoro-2-methyl-3-quinolyl)-2-[(3-fluorophenyl)methyl]-2,4-dimethyl-pentanamide], the melting point – broadly, the temperature, or range, at which the solid turns liquid – was 93 to 95 °C. For the same molecule, the inhibition of growth at 200 ppm in series [1] is at least 80%. Further, the pest or weed control at 200 ppm with Fusarium culmorum [2] is at least 80%. Moreover, the inhibition of growth at 200 ppm in the series on Fusarium culmorum [3] is at least 80%. For the same molecule, in series [6], the inhibition of growth at 200 ppm is at least 80%. Also, the inhibition of growth at 200 ppm in series [7] is at least 80%. Moreover, the inhibition of growth at 20 ppm with Sclerotinia sclerotiorum is at least 80%. Further, the inhibition of growth at 200 ppm in series [5] is at least 80%.

Take `C=C(C)CC(C)(Cc1cccc(F)c1)C(=O)Nc1cnc2c(F)cccc2c1` (stereo not drawn) [Compound E-11, 2-[(3-fluorophenyl)methyl]-N-(8-fluoro-3-quinolyl)-2,4-dimethyl-pent-4-enamide]: the melting point fell in the range of 125 to 127 °C. Also, the inhibition of growth at 200 ppm in series [1] was at least 80%. The inhibition of growth at 200 ppm in the series with Fusarium culmorum [3] is at least 80%. In addition, the inhibition of growth at 200 ppm in series [6] was at least 80%. Besides, in series [7], the inhibition of growth at 200 ppm was at least 80%. Further, the inhibition of growth at 20 ppm in the series on Sclerotinia sclerotiorum is at least 80%. Moreover, the inhibition of growth at 200 ppm in series [5] is at least 80%.

On to `C=C(C)CC(C)(Cc1cccc(F)c1)C(=O)Nc1cc2cccc(F)c2nc1C` (stereo not drawn) [Compound E-12, N-(8-fluoro-2-methyl-3-quinolyl)-2-[(3-fluorophenyl)methyl]-2,4-dimethyl-pent-4-enamide], for which the melting point lay in the range of 124 to 126 °C. In addition, the inhibition of growth at 200 ppm in series [1] is at least 80%. Moreover, the inhibition of growth at 200 ppm in the series on Fusarium culmorum [3] was at least 80%. In addition, the inhibition of growth at 200 ppm in [6] was at least 80%. The inhibition of growth at 200 ppm in series [7] was at least 80%. Moreover, in the series with Sclerotinia sclerotiorum, the inhibition of growth at 20 ppm was at least 80%. In addition, the inhibition of growth at 200 ppm in series [5] was at least 80%.

For `Cc1c(NC(=O)C(C)(Cc2ccccc2)CC(C)C)cnc2c(Cl)cccc12` (stereo not drawn) [Compound E-14, 2-benzyl-N-(8-chloro-4-methyl-3-quinolyl)-2,4-dimethyl-pentanamide], the melting point fell in the range of 124 to 126 °C. For the same molecule, the inhibition of growth at 200 ppm in series [1] was at least 80%. The inhibition of growth at 200 ppm in the series with Fusarium culmorum [3] is at least 80%. The inhibition of growth at 200 ppm in [6] was at least 80%. Also, in the series with Sclerotinia sclerotiorum, the inhibition of growth at 20 ppm is at least 80%. Besides, the inhibition of growth at 200 ppm in [5] is at least 80%.

The molecule `Cc1c(NC(=O)C(C)(Cc2ccccc2)CC(F)(F)F)cnc2c(Cl)cccc12` (stereo not drawn) [Compound E-15, 2-benzyl-N-(8-chloro-4-methyl-3-quinolyl)-4,4,4-trifluoro-2-methyl-butanamide] returned a melting point of 73 to 75 °C. Further, the inhibition of growth at 200 ppm in series [1] was at least 80%. In the series on Fusarium culmorum [3], the inhibition of growth at 200 ppm was at least 80%. Moreover, the inhibition of growth at 200 ppm in [6] was at least 80%. In addition, the inhibition of growth at 200 ppm in [7] was at least 80%. Further, the inhibition of growth at 20 ppm in the series with Sclerotinia sclerotiorum was at least 80%. In addition, the inhibition of growth at 200 ppm in series [5] was at least 80%.

Turning to `CC(Cc1ccccc1)(CC1(F)CC1)C(=O)Nc1cnc2c(F)cccc2c1` (stereo not drawn) [Compound E-25, 2-benzyl-3-(1-fluorocyclopropyl)-N-(8-fluoro-3-quinolyl)-2-methyl-propanamide], the melting point was in the range of 162 to 164 °C. Besides, the inhibition of growth at 200 ppm in [1] was at least 80%. In addition, the pest or weed control at 200 ppm with Fusarium culmorum [2] was at least 80%. The inhibition of growth at 200 ppm in the series on Fusarium culmorum [3] was at least 80%. Besides, the inhibition of growth at 200 ppm in series [6] was at least 80%. For the same molecule, the inhibition of growth at 20 ppm in the series with Sclerotinia sclerotiorum was at least 80%. The inhibition of growth at 200 ppm in series [5] is at least 80%.

Take `Cc1nc2c(F)cccc2cc1NC(=O)C(Cc1ccccc1)CC(F)(F)F` (stereo not drawn) [Compound E-44, 2-benzyl-4,4,4-trifluoro-N-(8-fluoro-2-methyl-3-quinolyl)butanamide]: the inhibition of growth at 200 ppm (in series [1]; in the series with Fusarium culmorum [3]; in series [6]; in series [5]) was at least 80% throughout. For the same molecule, the pest or weed control at 200 ppm (in the series on Fusarium culmorum [2]; in [4]) was at least 80% in each case.

Turning to `C=C(C)CC(CC)(Cc1ccccc1)C(=O)Nc1cnc2c(F)cccc2c1` (stereo not drawn) [Compound E-46, 2-benzyl-2-ethyl-N-(8-fluoro-3-quinolyl)-4-methyl-pent-4-enamide], the inhibition of growth at 200 ppm (in series [1]; in the series with Fusarium culmorum [3]; in [6]; in series [7]; in series [5]) was at least 80% in each case. In [4], the pest or weed control at 200 ppm is at least 80%.

On to `Cc1nc2c(F)cccc2cc1NC(=O)C(C)(Cc1ccccc1)CC(F)(F)F` (stereo not drawn) [Compound E-47, 2-benzyl-4,4,4-trifluoro-N-(8-fluoro-2-methyl-3-quinolyl)-2-methyl-butanamide], for which the melting point was 130 to 132 °C. Besides, the inhibition of growth at 200 ppm in [1] was at least 80%. In addition, the pest or weed control at 200 ppm in the series with Fusarium culmorum [2] is at least 80%. The inhibition of growth at 200 ppm in the series with Fusarium culmorum [3] is at least 80%. In addition, in series [6], the inhibition of growth at 200 ppm is at least 80%. In the series on Sclerotinia sclerotiorum, the inhibition of growth at 20 ppm is at least 80%. The inhibition of growth at 200 ppm in series [5] is at least 80%.

Molecule `CC(Cc1ccccc1)(CC(F)(F)F)C(=O)Nc1cnc2c(Cl)cccc2c1` (stereo not drawn) [Compound E-51, 2-benzyl-N-(8-chloro-3-quinolyl)-4,4,4-trifluoro-2-methyl-butanamide] came in with a melting point of 104 to 106 °C. Also, the inhibition of growth at 200 ppm in series [1] is at least 80%. For the same molecule, the pest or weed control at 200 ppm with Fusarium culmorum [2] is at least 80%. In the series on Fusarium culmorum [3], the inhibition of growth at 200 ppm is at least 80%. Moreover, the inhibition of growth at 200 ppm in [6] is at least 80%. Further, in series [7], the inhibition of growth at 200 ppm is at least 80%. Also, in the series with Sclerotinia sclerotiorum, the inhibition of growth at 20 ppm is at least 80%. Moreover, the inhibition of growth at 200 ppm in [5] is at least 80%.

As for `C=C(Cl)CC(C)(Cc1ccccc1)C(=O)Nc1cnc2c(F)cccc2c1` (stereo not drawn) [Compound E-53, 2-benzyl-4-chloro-N-(8-fluoro-3-quinolyl)-2-methyl-pent-4-enamide], the melting point lay in the range of 148 to 150 °C. In series [1], the inhibition of growth at 200 ppm is at least 80%. In addition, the pest or weed control at 200 ppm in the series with Fusarium culmorum [2] was at least 80%. Further, the inhibition of growth at 200 ppm in the series with Fusarium culmorum [3] was at least 80%. Also, the inhibition of growth at 200 ppm in [6] was at least 80%. In [7], the inhibition of growth at 200 ppm is at least 80%. Besides, the inhibition of growth at 20 ppm in the series on Sclerotinia sclerotiorum is at least 80%. For the same molecule, the inhibition of growth at 200 ppm in [5] is at least 80%.

As for `Cc1c(NC(=O)[C@@](C)(Cc2ccccc2)CC(C)C)cnc2c(F)cccc12` [Compound F-4, (2R)-2-benzyl-N-(8-fluoro-4-methyl-3-quinolyl)-2,4-dimethyl-pentanamide], the inhibition of growth at 200 ppm (in [1]; in the series on Fusarium culmorum [3]; in series [5]) was at least 80% each time. The pest or weed control at 200 ppm (in the series on Fusarium culmorum [2]; in series [4]) was at least 80% throughout.

As to `Cc1nc2c(F)cccc2cc1NC(=O)[C@@](C)(Cc1ccccc1)CC(C)C` [Compound F-8, (2R)-2-benzyl-N-(8-fluoro-2-methyl-3-quinolyl)-2,4-dimethyl-pentanamide], the inhibition of growth at 200 ppm (in series [1]; in the series on Fusarium culmorum [3]; in [6]; in series [7]; in series [5]) was at least 80% throughout. In the series on Fusarium culmorum [2], the pest or weed control at 200 ppm is at least 80%. The inhibition of growth at 20 ppm with Sclerotinia sclerotiorum was at least 80%.

`CC1(C[C@@](C)(Cc2ccccc2)C(=O)Nc2cnc3c(F)cccc3c2)CC1` [Compound F-10, (2S)-2-benzyl-N-(8-fluoro-3-quinolyl)-2-methyl-3-(1-methylcyclopropyl) propanamide] had a melting point of 58 to 60 °C. Besides, the inhibition of growth at 200 ppm in series [1] is at least 80%. Moreover, the inhibition of growth at 200 ppm in the series with Fusarium culmorum [3] was at least 80%. The inhibition of growth at 200 ppm in [6] is at least 80%. Moreover, the inhibition of growth at 200 ppm in [7] was at least 80%. Also, the inhibition of growth at 20 ppm with Sclerotinia sclerotiorum is at least 80%. Also, the inhibition of growth at 200 ppm in series [5] was at least 80%.

On to `Cc1c(NC(=O)[C@](C)(Cc2ccccc2)CC(F)(F)F)cnc2c(F)cccc12` [Compound F-13, (2R)-2-benzyl-4,4,4-trifluoro-N-(8-fluoro-4-methyl-3-quinolyl)-2-methyl-butanamide], for which the melting point lay in the range of 71 to 73 °C. Also, in [1], the inhibition of growth at 200 ppm is at least 80%. In the series on Fusarium culmorum [2], the pest or weed control at 200 ppm was at least 80%. In the series with Fusarium culmorum [3], the inhibition of growth at 200 ppm is at least 80%. Also, the inhibition of growth at 200 ppm in [6] is at least 80%. Moreover, the inhibition of growth at 200 ppm in series [7] was at least 80%. In addition, in the series with Sclerotinia sclerotiorum, the inhibition of growth at 20 ppm is at least 80%. Also, the inhibition of growth at 200 ppm in series [5] was at least 80%.

Regarding `Cc1c(NC(=O)[C@@](C)(Cc2ccccc2)CC(F)(F)F)cnc2c(F)cccc12` [Compound F-14, (2S)-2-benzyl-4,4,4-trifluoro-N-(8-fluoro-4-methyl-3-quinolyl)-2-methyl-butanamide], the melting point is 74 to 76 °C. In [1], the inhibition of growth at 200 ppm was at least 80%. Further, the pest or weed control at 200 ppm with Fusarium culmorum [2] is at least 80%. For the same molecule, in the series with Fusarium culmorum [3], the inhibition of growth at 200 ppm is at least 80%. Besides, the inhibition of growth at 200 ppm in series [6] was at least 80%. Besides, the inhibition of growth at 200 ppm in series [7] is at least 80%. Also, the inhibition of growth at 20 ppm in the series on Sclerotinia sclerotiorum was at least 80%. In [5], the inhibition of growth at 200 ppm was at least 80%.
